PubChem BioAssay (NCI)
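Cells were grown in 96-well plates and exposed to each compound for 48 hours at five concentrations; endpoints were interpolated linearly between bracketing concentrations, or set to the highest concentration if not reached. TGI is the concentration that stops growth completely.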

Assays:
Assay in all cases: NCI tumour cell line growth inhibition, 48 h
[1] = test system: KM12 colon
[2] = test system: SK-MEL-28 melanoma
[3] = test system: HL-60(TB) leukemia
[4] = test system: UACC-257 melanoma
[5] = test system: A498 renal
[6] = test system: U251 CNS
[7] = test system: SF-295 CNS
[8] = test system: NCI-H23 lung
[9] = test system: A549 NSCLC
[10] = test system: SF-268 CNS
[11] = test system: BT-549 breast
[12] = test system: MCF7 breast
[13] = test system: IGROV1 ovarian
[14] = test system: NCI/ADR-RES ovarian
[15] = test system: HT29 colon
[16] = test system: OVCAR-5 ovarian
[17] = test system: OVCAR-3 ovarian
[18] = test system: SNB-75 CNS
[19] = test system: NCI-H460 lung
[20] = test system: MALME-3M melanoma
[21] = test system: HS 578T breast
[22] = test system: DU-145 prostate
[23] = test system: COLO 205 colon
[24] = test system: HOP-62 NSCLC
[25] = test system: SK-OV-3 ovarian
[26] = test system: SF-539 CNS
[27] = test system: NCI-H226 lung
[28] = test system: NCI-H522 lung
[29] = test system: SW-620 colon
[30] = test system: ACHN renal
[31] = test system: MOLT-4 leukemia
[32] = test system: SK-MEL-5 melanoma
[33] = test system: M14 melanoma
[34] = test system: CCRF-CEM leukemia
[35] = test system: CAKI-1 renal
[36] = test system: EKVX NSCLC
[37] = test system: RPMI-8226 leukemia
[38] = test system: LOX IMVI melanoma
[39] = test system: HCC-2998 colon
[40] = test system: UACC-62 melanoma
[41] = test system: TK-10 renal
[42] = test system: SNB-19 CNS
[43] = test system: MDA-MB-435
[44] = test system: 786-0 renal
[45] = test system: SN12C renal
[46] = test system: OVCAR-8 ovarian
[47] = test system: HCT-116 colon
[48] = test system: MDA-N
[49] = test system: HCT-15 colon
[50] = test system: SK-MEL-2 melanoma
[51] = test system: PC-3 prostate
[52] = test system: OVCAR-4 ovarian
[53] = test system: T-47D breast
[54] = test system: HOP-92 NSCLC
[55] = test system: MDA-MB-231 breast
[56] = test system: UO-31 renal
[57] = test system: RXF 393 renal
[58] = test system: K-562 leukemia
[59] = test system: SR leukemia

CSc1nc(Br)nc2c1ncn2C1CC(Oc2ccc(C)cc2)C(COc2ccc(C)cc2)O1 (stereo not drawn)
TGI [1]: > 100 µM | TGI [2]: > 100 µM | TGI [3]: > 100 µM | TGI [4]: > 100 µM | TGI [5]: > 100 µM | TGI [6]: > 100 µM | TGI [7]: > 100 µM | TGI [8]: > 100 µM | TGI [9]: > 100 µM | TGI [10]: > 100 µM | TGI [11]: > 100 µM | TGI [12]: > 100 µM | TGI [13]: > 100 µM | TGI [14]: > 100 µM | TGI [15]: > 100 µM | TGI [16]: > 100 µM | TGI [17]: > 100 µM | TGI [18]: 94.6 µM | TGI [19]: > 100 µM | TGI [20]: > 100 µM | TGI [21]: 65.5 µM | TGI [22]: > 100 µM | TGI [23]: > 100 µM | TGI [24]: > 100 µM | TGI [25]: > 100 µM | TGI [26]: > 100 µM | TGI [27]: > 100 µM | TGI [28]: > 100 µM | TGI [29]: > 100 µM | TGI [30]: > 100 µM | TGI [31]: > 100 µM | TGI [32]: > 100 µM | TGI [33]: > 100 µM | TGI [34]: > 100 µM | TGI [35]: > 100 µM | TGI [36]: > 100 µM | TGI [37]: > 100 µM | TGI [38]: > 100 µM | TGI [39]: > 100 µM | TGI [40]: > 100 µM | TGI [41]: > 100 µM | TGI [42]: 73.8 µM | TGI [43]: > 100 µM | TGI [44]: > 100 µM | TGI [45]: > 100 µM | TGI [46]: > 100 µM | TGI [47]: > 100 µM | TGI [48]: > 100 µM | TGI [49]: > 100 µM | TGI [50]: > 100 µM | TGI [51]: > 100 µM | TGI [52]: > 100 µM | TGI [53]: > 100 µM | TGI [54]: > 100 µM | TGI [55]: > 100 µM

C/C=C\C(CC(=O)O)CC(=O)NCCC1CN(S(=O)(=O)C(F)(F)F)c2ccccc21 (stereo not drawn)
TGI [1]: > 100 µM | TGI [2]: > 100 µM | TGI [4]: > 100 µM | TGI [5]: > 100 µM | TGI [6]: > 100 µM | TGI [7]: > 100 µM | TGI [8]: > 100 µM | TGI [9]: > 100 µM | TGI [10]: > 100 µM | TGI [11]: > 100 µM | TGI [12]: > 100 µM | TGI [13]: > 100 µM | TGI [14]: > 100 µM | TGI [15]: > 100 µM | TGI [16]: > 100 µM | TGI [17]: > 100 µM | TGI [18]: > 100 µM | TGI [19]: > 100 µM | TGI [56]: > 100 µM | TGI [20]: > 100 µM | TGI [21]: > 100 µM | TGI [22]: > 100 µM | TGI [23]: > 100 µM | TGI [24]: > 100 µM | TGI [25]: > 100 µM | TGI [57]: > 100 µM | TGI [28]: > 100 µM | TGI [29]: > 100 µM | TGI [30]: > 100 µM | TGI [31]: > 100 µM | TGI [32]: > 100 µM | TGI [33]: > 100 µM | TGI [34]: > 100 µM | TGI [35]: > 100 µM | TGI [36]: > 100 µM | TGI [37]: > 100 µM | TGI [38]: > 100 µM | TGI [39]: > 100 µM | TGI [40]: > 100 µM | TGI [42]: > 100 µM | TGI [58]: > 100 µM | TGI [43]: > 100 µM | TGI [44]: > 100 µM | TGI [46]: > 100 µM | TGI [47]: > 100 µM | TGI [48]: > 100 µM | TGI [49]: > 100 µM | TGI [50]: > 100 µM | TGI [51]: > 100 µM | TGI [52]: > 100 µM | TGI [54]: > 100 µM | TGI [59]: > 100 µM | TGI [55]: > 100 µM
